{"source": "patent US20030017976A1", "about": "“Therapeutic properties of liposome-encapsulated immunomodulators” (priority 1998, published 2003)", "key": {"TG-Mø from C57BL/6 mice": {"tested_on": "TG-Mø from C57BL/6 mice", "experiment": "NO production in TG macrophages by free-form and tablet JBT 3002", "type": "cell-based, mouse", "settings": "24 hr", "procedure": "Preparation of tablet to free-form in water. Tablet placed in 10 ml sterile, pyrogen-free water for 2-3 min with shaking at room temperature, then 10 ml more water added using Lot PCOO2.115. At 100 μg/tablet, this gave 5 ug/ml active material. Solution opaque with “carrier”-appearing material. Settled to bottom. Placed at 37° C. for about 5 min. pH tested at 8.0. Two aliquots of 10 ml taken. One aliquot was taken to pH 1.5 by a single drop of concentrated HCl. Both samples were placed in a water bath at 37° C. for 30 min. The low pH sample was restored to pH 7.7 with NaOH (took about 5 drops of the NaOH, IN solution). The samples were brought to 50 ml by addition of water, and the final pH was 8.0 for the original and 7.43 for the low pH sample. The solutions were still slightly opaque and filtering with a 0.2 micron filter cleared the solution. Aliquots of about 25 ml were measured in an assay for NO production by macrophages and testing of the working dilution for endotoxin."}, "IL-15": {"tested_on": "IL-15", "experiment": "RT-PCR of IL-15 in PEM and IEC6 cells", "type": "cell-based", "source_text": "To determine whether macrophages or epithelial cells respond to JBT 3002 by upregulating IL-1 5, the RT-PCR technique was used and the results are shown in FIG. 23."}, "[1]": {"tested_on": "peritoneal exudate macrophages (PEM)", "experiment": "Nitrite (NO) production by mouse peritoneal exudate macrophages", "type": "cell-based", "settings": "available to 1×10^5 PEM", "procedure": "Peritoneal exudate macrophages (PEM) were collected by peritoneal lavage from mice given an intraperitoneal injection of 2.0 ml of thioglycollate broth (Baltimore Biological Laboratory, Cockeysville, Md.) 4 days before harvest (Dong Z, O'Brian C A, et al. J Leukoc Biol (1993) 53:53-60; Xie K, Huang S, et al. Cancer Res (1995) 55:3123-31). The PEM were washed in Ca^+2- an Mg^2+-free HBSS and resuspended in serum-free medium: 1×10^5 cells were plated into each 38-mm^2 well of 96-2311 culture plates (Falcon Plastics, Oxnard, Calif.). After a 90-min incubation, the nonadherent cells were removed by washing with medium. More than 98% of the adherent cell populations were macrophages according to morphology and phagocytic criteria (Saiki I, et al. J Immunol (1985) 135:684-8). […] After treatment, the cultures were washed and macrophage-mediated cytotoxicity against different tumor targets was determined. […]\nNitrite accumulation in the culture supernatant was measured in a colorimetric assay as described previously (Ding A E, et al. J Immunol (1988) 141:2407-12). […] The mixtures were incubated 10 min with shaking, and A540 was measured with the use of a microplate reader (Model 3550; Bio-Rad Corp., San Francisco, Calif.). The concentration of nitrite was determined by comparing it with a standard solution of sodium nitrite in medium."}, "human monocytes": {"tested_on": "human monocytes", "experiment": "Northern blot of cytokine mRNA in monocytes", "type": "cell-based", "settings": "LPS 100 ng/ml, MLV-JBT3002 500 nmol/ml, JBT3002 1 ng/ml; 1-3 h", "procedure": "Total RNA was extracted using Tri reagent™ kit according to the manufacturer's instructions (Molecular Research Center, Inc., Cincinnati, Ohio). […] Cytokine and GAPDH and mRNA were detected using cDNA probes of Human TNF-α, IL-1β, IL-6 and rat glyceraldehyde-3-phosphate dehydrogenase (GAPDH) labeled by nick translation with α-^32P-CTP. Hybridizations were performed as described (Dong, Z. et al. J Natl. Cancer Inst. (1994) 86:913)."}, "C57BL/6 mice": {"tested_on": "C57BL/6 mice", "experiment": "Prevention of CPT-11 induced intestinal damage and morbidity by oral immunomodulator", "type": "in vivo, mouse", "settings": "oral saline or JBT3002 0.1, 1.0 and 10 μg/dose in PC liposomes, then CPT-11 100 mg/kg i.p. 4 days", "procedure": "Experimental Design and Methods. […] Tissue was harvested 7 days after the last injection (small intestine and colon distal to the cecum). Histology was prepared. Some mice were monitored for the presence of drug toxicity.\nExample 6 has shown that 100, 150, and 200 mg/kg at 4 consecutive i.p. administrations are highly toxic to C57BL/6 mice."}}, "note": "Marks after values point to notes of the source that are not given here."}
{"substance": "N-hexadecanol-S-[2(R)-3-diodecanoyloxypropyl]-L-cysteinyl-L-alanyl-D-isoglutaminyl-glycyl-taurine sodium salt [JBT3002]", "values": [{"measurement": "nitrite", "setting": "TG-Mø from C57BL/6 mice; Table 17, JBT 0.003 ng/ml, IFN-γ (10 U/ml)", "value": 17.5, "unit": "µM"}, {"measurement": "nitrite", "setting": "TG-Mø from C57BL/6 mice; Table 17, JBT 0.003 ng/ml, medium", "value": 0, "unit": "µM"}, {"measurement": "nitrite", "setting": "TG-Mø from C57BL/6 mice; Table 17, JBT 0.016 ng/ml, IFN-γ (10 U/ml)", "value": 33.7, "unit": "µM"}, {"measurement": "nitrite", "setting": "TG-Mø from C57BL/6 mice; Table 17, JBT 0.016 ng/ml, medium", "value": 0, "unit": "µM"}, {"measurement": "nitrite", "setting": "TG-Mø from C57BL/6 mice; Table 17, JBT 0.08 ng/ml, IFN-γ (10 U/ml)", "value": 41, "unit": "µM"}, {"measurement": "nitrite", "setting": "TG-Mø from C57BL/6 mice; Table 17, JBT 0.08 ng/ml, medium", "value": 0, "unit": "µM"}, {"measurement": "nitrite", "setting": "TG-Mø from C57BL/6 mice; Table 17, JBT 0.4 ng/ml, IFN-γ (10 U/ml)", "value": 44.7, "unit": "µM"}, {"measurement": "nitrite", "setting": "TG-Mø from C57BL/6 mice; Table 17, JBT 0.4 ng/ml, medium", "value": 0, "unit": "µM"}, {"measurement": "nitrite", "setting": "TG-Mø from C57BL/6 mice; Table 17, JBT 2 ng/ml, IFN-γ (10 U/ml)", "value": 53.1, "unit": "µM"}, {"measurement": "nitrite", "setting": "TG-Mø from C57BL/6 mice; Table 17, JBT 2 ng/ml, medium", "value": 0, "unit": "µM"}, {"measurement": "nitrite", "setting": "TG-Mø from C57BL/6 mice; Table 17, JBT 10 ng/ml, IFN-γ (10 U/ml)", "value": "60.9* μM"}, {"measurement": "nitrite", "setting": "TG-Mø from C57BL/6 mice; Table 17, JBT 10 ng/ml, medium", "value": 8.4, "unit": "µM"}, {"measurement": "nitrite", "setting": "TG-Mø from C57BL/6 mice; Table 18, JBT3002 0.0001 ng/ml, 10 U/ml IFN-γ", "value": 0}, {"measurement": "nitrite", "setting": "TG-Mø from C57BL/6 mice; Table 18, JBT3002 0.0001 ng/ml, medium", "value": 0}, {"measurement": "nitrite", "setting": "TG-Mø from C57BL/6 mice; Table 18, JBT3002 0.001 ng/ml, 10 U/ml IFN-γ", "value": 8.5}, {"measurement": "nitrite", "setting": "TG-Mø from C57BL/6 mice; Table 18, JBT3002 0.001 ng/ml, medium", "value": 0}, {"measurement": "nitrite", "setting": "TG-Mø from C57BL/6 mice; Table 18, JBT3002 0.01 ng/ml, 10 U/ml IFN-γ", "value": 19.5}, {"measurement": "nitrite", "setting": "TG-Mø from C57BL/6 mice; Table 18, JBT3002 0.01 ng/ml, medium", "value": 0}, {"measurement": "nitrite", "setting": "TG-Mø from C57BL/6 mice; Table 18, JBT3002 0.1 ng/ml, 10 U/ml IFN-γ", "value": 27.7}, {"measurement": "nitrite", "setting": "TG-Mø from C57BL/6 mice; Table 18, JBT3002 0.1 ng/ml, medium", "value": 0}, {"measurement": "nitrite", "setting": "TG-Mø from C57BL/6 mice; Table 18, JBT3002 1 ng/ml, 10 U/ml IFN-γ", "value": 37.7}, {"measurement": "nitrite", "setting": "TG-Mø from C57BL/6 mice; Table 18, JBT3002 1 ng/ml, medium", "value": 0}, {"measurement": "nitrite", "setting": "TG-Mø from C57BL/6 mice; Table 18, JBT3002 10 ng/ml, 10 U/ml IFN-γ", "value": 47.1}, {"measurement": "nitrite", "setting": "TG-Mø from C57BL/6 mice; Table 18, JBT3002 10 ng/ml, medium", "value": 0.5}, {"measurement": "IL-15 expression in response to JBT 3002 (RT-PCR)", "setting": "IL-15", "value": "Peritoneal exudate macrophages (PEM), but not intestinal cells (IEC6), upregulate IL-15 expression"}, {"measurement": "minimal concentration of JBT3002 required to generate significant levels of NO (20 μM)", "setting": "[1]", "value": "0.12 to 0.15", "unit": "ng"}, {"measurement": "mRNA for TNF-α, IL-1β, and IL-6", "setting": "human monocytes", "value": "High levels of mRNA for TNF-α, IL-1β, and IL-6"}, {"measurement": "intestinal toxicity (histology)", "setting": "C57BL/6 mice", "value": "the intestines were normal"}]}
